Patent publication US10829520B2, “Beta-hairpin peptidomimetics” (POLYPHOR AG, priority 2015, dated 2020)
Where a SMILES comes first, the peptide text is derived from it. Bridges are numbered along the chain shown (N, C = ends). Roman numbers before positions name the chains, in order. [ ]: non-standard residue; d: D form. Hyp = O=C(O)[C@@H]1C[C@@H](O)CN1; Tle = CC(C)(C)[C@H](N)C(=O)O; dDab = NCC[C@@H](N)C(=O)O; Nle = CCCC[C@H](N)C(=O)O; Orn = NCCC[C@H](N)C(=O)O; Dab = NCC[C@H](N)C(=O)O; dAze = O=C(O)[C@H]1CCN1; Dap = NC[C@H](N)C(=O)O

Experiments:
Type in all cases: cell-based
[1] = test system: Pseudomonas aeruginosa ATCC 27853; settings: ATCC 27853
Outline: (§1)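 Antibacterial activity is measured as MIC (μg/mL) by standard CLSI microdilution. Inocula of about 10^6 CFU/mL in MH-II broth meet two-fold peptide dilutions in medium with 0.002% Polysorbate 80, and growth is scored visually after 18-20 hours at 35° C.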

[2] = test system: Klebsiella pneumoniae 968733; settings: 968733
[3] = test system: Acinetobacter baumannii DSM 30008; settings: DSM 30008
Outline: as §1

Escherichia coli 926415 = settings: 926415
[4] = test system: Klebsiella pneumoniae SSI #3010; settings: SSI #3010
Outline: as §1

[5] = test system: Acinetobacter baumannii 872842; settings: 872842
[6] = test system: Escherichia coli ATCC 25922; settings: ATCC 25922
Outline: as §1

[7] = test system: human red blood cells (hRBC); assay: Hemolysis of human red blood cells; settings: red cells of human, 1 h
Outline: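 Fresh human red blood cells are washed in PBS, then shaken with peptide (100 μg/mL) at 37° C. for 1 h, final erythrocyte density about 0.9×10^9 cells/mL. After centrifugation, diluted supernatants are read at 540 nm against buffer (0%) and Triton X-100 (100%) lysis controls.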

Row | SMILES | Pseudomonas aeruginosa ATCC 27853 MIC [1] [µg/mL] | Klebsiella pneumoniae 968733 MIC [2] [µg/mL] | Acinetobacter baumannii DSM 30008 MIC [3] [µg/mL] | Escherichia coli 926415 MIC (Escherichia coli 926415) [µg/mL] | Klebsiella pneumoniae SSI #3010 MIC [4] [µg/mL] | Acinetobacter baumannii 872842 MIC [5] [µg/mL] | Escherichia coli ATCC 25922 MIC [6] [µg/mL] | Hemolysis at 100 μg/mL ([7]; 100 μg/mL) [%] | Hemolysis at 100 μg/mL [7]; 100 [%]
1 | CCCC[C@@H]1NC(=O)[C@@H]2CCCN2C(=O)[C@H]2CCCN2C(=O)[C@H](CO)NC(=O)[C@H](C)NC(=O)[C@H](C(C)(C)C)NC(=O)[C@@H](NC(=O)[C@@H](N)Cc2c[nH]c3ccccc23)CSSC[C@@H](C(=O)N[C@@H](CCCN)C(=O)N[C@@H](CCN)C(=O)N[C@H]2CCNC(=O)[C@H]([C@@H](C)O)NC(=O)[C@H](CCN)NC(=O)[C@H](CCN)NC(=O)[C@H](CC(C)C)NC(=O)[C@@H](Cc3ccccc3)NC(=O)[C@H](CCN)NC2=O)NC(=O)[C@H](Cc2ccc(O)cc2)NC(=O)[C@H](CO)NC1=O [Ex. 45] (H-WC[Tle]AS[dP]P[Nle]SYC[Orn][Dab][Dab][Dab][dF]L[Dab][Dab]T; disulfide 2-11; lactam 14-C) | 0.5 | 0.25 | 0.125 | 0.25 | 0.125 | 0.25 | 0.125 | 1 | 
2 | CC(=O)N[C@@H](Cc1c[nH]c2ccccc12)C(=O)N[C@H]1CSSC[C@@H](C(=O)N[C@@H](CCCN)C(=O)N[C@@H](CCN)C(=O)N[C@@H](CCN)C(=O)N[C@H]2CCNC(=O)[C@H]([C@@H](C)O)NC(=O)[C@H](CCN)NC(=O)[C@H](CCN)NC(=O)[C@H](CC(C)C)NC(=O)[C@@H](Cc3ccccc3)NC(=O)[C@H](CCN)NC2=O)NC(=O)[C@H](Cc2ccc(O)cc2)NC(=O)[C@H](CO)NC(=O)[C@H](CC(C)C)NC(=O)[C@@H]2CCCN2C(=O)[C@H]2CCCN2C(=O)[C@H](CO)NC(=O)[C@@H](C)NC(=O)[C@H](C(C)(C)C)NC1=O [Ex. 112] (Ac-WC[Tle][dA]S[dP]PLSYC[Orn][Dab][Dab][Dab][Dab][dF]L[Dab][Dab]T; disulfide 2-11; lactam 15-C) | 4 | 0.5 | 1 | 1 | 0.5 | 1 | 1 | 1 | 
3 | CC(C)C[C@@H]1NC(=O)[C@@H](CC(C)C)NC(=O)[C@H](CCN)NC(=O)[C@@H](NC(=O)[C@H](CCN)NC(=O)[C@@H](NC(=O)[C@H](CCN)NC(=O)CC[C@@H]2NC(=O)[C@H](CCN)NC(=O)[C@H](Cc3ccc(O)cc3)NC(=O)[C@H]([C@@H](C)O)NC(=O)[C@H](C(C)C)NC(=O)[C@@H]3C[C@@H](O)CN3C(=O)[C@H]3CCN3C(=O)[C@H](CO)NC(=O)[C@H](CO)NC(=O)[C@H](C(C)C)NC(=O)[C@H](CCN)NC(=O)[C@H](Cc3c[nH]c4ccccc34)NC(=O)[C@H](CCN)NC(=O)[C@@H](CCN)NC2=O)[C@@H](C)O)CCNC(=O)[C@H]([C@@H](C)O)NC(=O)[C@H](CCN)NC(=O)[C@H](CCN)NC1=O [Ex. 93] (I: cyclo([Dab]E[dDab][Dab]W[Dab]VSS[dAze][Hyp]VTY) / II: [Dab]T[Dab][Dab][Dab][dL]L[Dab][Dab]T; amide I:2-II:N; lactam II:4-II:C) | 0.25 | 8 | 2 | 2 | 0.25 | 1 | 0.5 |  | 1
4 | CC(=O)N[C@@H](Cc1c[nH]c2ccccc12)C(=O)N[C@H]1CSSC[C@@H](C(=O)N[C@@H](CCCN)C(=O)N[C@H](CCN)C(=O)N[C@@H](CCN)C(=O)N[C@H]2CCNC(=O)[C@H]([C@@H](C)O)NC(=O)[C@H](CCN)NC(=O)[C@H](CCN)NC(=O)[C@H](CC(C)C)NC(=O)[C@@H](Cc3ccccc3)NC(=O)[C@H](CCN)NC2=O)NC(=O)[C@H](Cc2ccc(O)cc2)NC(=O)[C@H](CN)NC(=O)[C@H](Cc2ccccc2)NC(=O)[C@H](CC(C)C)NC(=O)[C@H]2CCCN2C(=O)[C@H](CO)NC(=O)[C@H](C)NC(=O)[C@H](C(C)(C)C)NC1=O [Ex. 110] (Ac-WC[Tle]AS[dP]LF[Dap]YC[Orn][dDab][Dab][Dab][Dab][dF]L[Dab][Dab]T; disulfide 2-11; lactam 15-C) | 1 | 2 | 0.25 | 0.25 | 0.5 | 0.25 | 0.5 | 2 | 
5 | CCCC[C@@H]1NC(=O)[C@@H]2CCCN2C(=O)[C@H]2CCCN2C(=O)[C@H](CO)NC(=O)[C@H](C)NC(=O)[C@H](C(C)(C)C)NC(=O)[C@H](CCN)NC(=O)[C@H](Cc2c[nH]c3ccccc23)NC(=O)[C@H](CCN)NC(=O)[C@@H](CCN)NC(=O)[C@H](CC(=O)N[C@@H](CCN)C(=O)N[C@H]2CCNC(=O)[C@H]([C@@H](C)O)NC(=O)[C@H](CCN)NC(=O)[C@H](CCN)NC(=O)[C@H](CC(C)C)NC(=O)[C@@H](Cc3ccccc3)NC(=O)[C@H](CCN)NC2=O)NC(=O)[C@H](CCN)NC(=O)[C@H](Cc2ccc(O)cc2)NC(=O)[C@H](CO)NC1=O [Ex. 67] (I: cyclo([Nle]SY[Dab]D[dDab][Dab]W[Dab][Tle]AS[dP]P) / II: [Dab][Dab][Dab][dF]L[Dab][Dab]T; amide I:5-II:N; lactam II:2-II:C) | 1 | 2 | 1 | 2 | 2 | 4 | 1 |  | <1
6 | CCCC[C@@H]1NC(=O)[C@@H]2CCCN2C(=O)[C@H]2CCCN2C(=O)[C@H](CO)NC(=O)[C@H](C)NC(=O)[C@H](C(C)(C)C)NC(=O)[C@@H](NC(=O)[C@H](Cc2c[nH]c3ccccc23)NC(C)=O)CSSC[C@@H](C(=O)N[C@@H](CCN)C(=O)N[C@H](C(=O)N[C@@H](CN)C(=O)N[C@H]2CCNC(=O)[C@H]([C@@H](C)O)NC(=O)[C@H](CCN)NC(=O)[C@H](CCN)NC(=O)[C@H](CC(C)C)NC(=O)[C@@H](Cc3ccccc3)NC(=O)[C@H](CCN)NC2=O)[C@@H](C)O)NC(=O)[C@H](Cc2ccc(O)cc2)NC(=O)[C@H](CO)NC1=O [Ex. 20] (Ac-WC[Tle]AS[dP]P[Nle]SYC[Dab]T[Dap][Dab][Dab][dF]L[Dab][Dab]T; disulfide 2-11; lactam 15-C) | 0.25 | 1 | 0.5 | 0.25 | 0.25 | 0.5 | 0.125 | 1 | 
